Source: US8133471B2, “CLK-peptide and SLK-peptide” (New York University, priority 2003, dated 2012)

Columns and labels:
[1] = system: Human melanoma (M21) cells; assay: M21 cell adhesion, CLK-peptide combined with mAb HUIV26 (Example 10); format: cell-based; conditions: data not shown
Procedure: FIG. 10 Effect of mAb HUIV26 in Combination with CLK-Peptide on Adhesion of M21 Cells to Denatured Collagen Type IV. Microtiter wells were coated with denatured collagen type-IV. M21 cells were allowed to bind to the coated substrates in the presence of CLK-peptide, mAb HUIV26, or both.
The effects of CLK-peptide, mAb HUIV26, and the combination of both on tumor cell adhesion were examined in vitro. Non-tissue culture treated 48-well microtiter plates were coated overnight at 4° C. with either native or denatured collagen type-IV (5 μg/ml). The plates were then blocked with 1% BSA in PBS for 1 hour at 37° C. Human melanoma (M21) cells at 10^5 cells/well in adhesion buffer were allowed to attach to the coated wells in the presence of either CLK-peptide (100 μg/ml), or mAb HUIV26 (100 μg/ml), or both together (CLK-peptide 25 μg/ml, mAb HUIV26 100 μg/ml). The cells were washed 2× with PBS, stained with crystal violet and destained with 10% acetic acid. Cell adhesion was quantified by measuring the O.D. of eluted dye at 600 nm. Data bars represent the mean O.D.±standard deviation from triplicate wells.

[2] = system: Glioblastoma (GL261) cells; assay: GL261 glioblastoma cell adhesion to collagen type-IV; format: cell-based, murine
Procedure: FIG. 21 Effects of CLK-Peptide on Glioblastoma Cell Adhesion to Denatured Collagen Type-IV.
To assess the functional significance of the HUI77/CLK cryptic epitope, cell adhesion assays using a glioblastoma cell line were performed. Microtiter plates were coated with denatured collagen type-IV (10 μg/ml). Glioblastoma (GL261) cells were resuspended in adhesion buffer in the presence or absence of CLK-peptide or a non-specific control (CTW) peptide (50 μg/ml) and the […] were incubated in the coated wells for 30 minutes. Non-attached cells were removed by washing, and attached cells quantified by staining with crystal violet.

GL261 tumor cells = assay: GL261 cell migration, CLK-peptide combined with ionizing radiation (Example 22); format: cell-based, murine; conditions: 50 μg/ml + 5.0 Gy; 6 hours; versus controls
Procedure: The effects, of combining CLK-peptide with radiation therapy, on invasive tumor cell migration are examined. GL261 cells are resuspended in migration buffer in the presence or absence of CLK-peptide or control (50 μg/ml). The cells are added to the coated wells and allowed to incubate for 1 hour, and either left untreated or irradiated with a single fraction dose of ionizing radiation (5.0 Gy). The GL261 tumor cells are allowed to migrate for 6 hours. Tumor cells that have migrated to the underside of the coated membranes are quantified by staining with crystal violet, and the optical densities of cell-associated dye are measured with a microplate reader at a wavelength of 600 nm. CLK-peptide in combination with ionizing radiation is found to inhibit GL261 cell migration on denatured collagen type-IV substantially when compared to controls.

H-CLKQNGGNFSLG-OH [CLK-peptide, NH2-C-L-K-Q-N-G-G-N-F-S-L-G-COOH]
effect on M21 cell adhesion to native collagen type-IV [1]: neither had any effect | inhibition of glioblastoma cell adhesion to denatured collagen type-IV ([2]; 50 μg/ml, 30 minutes): 90% | effect on glioblastoma cell adhesion to native intact collagen type-IV ([2]; data not shown): no effect | inhibition of GL261 cell migration on denatured collagen type-IV in combination with ionizing radiation (GL261 tumor cells): substantially
